Results: patent US8263606B2 (Xenon Pharmaceuticals Inc., priority 2008, dated 2012)

Experiments:
sodium channel = assay: Guanidine influx assay (14C-guanidine radiotracer flux, in vitro); assay type: cell-based, human or rat; settings: guanidine influx assay using a known cell line that expresses a sodium channel
How it was run: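 Cells (human/rat Nav, endogenous or recombinant), ~100,000/well, 20-24 h 37 °C/5% CO2. Wash LNHBSS (150 mM choline Cl, HEPES, glucose). Add cpd + aconitine/14C-guanidine mix, RT. Wash, dry, scintillation count. IC50: 4-PL fit; selectivity as IC50 ratio vs reference channel, e.g. Nav1.5.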

CYP3A4 = CYP3A4 (Homo sapiens, UniProt P08684); assay: Cytochrome P450 (CYP450) Inhibition Assay, CYP3A4 (Vivid fluorescence, BOMCC substrate); settings: human, P450 Baculosomes (recombinant CYP3A4), probe BOMCC (Vivid substrate)
CYP3A4, sequence (P08684 whole entry): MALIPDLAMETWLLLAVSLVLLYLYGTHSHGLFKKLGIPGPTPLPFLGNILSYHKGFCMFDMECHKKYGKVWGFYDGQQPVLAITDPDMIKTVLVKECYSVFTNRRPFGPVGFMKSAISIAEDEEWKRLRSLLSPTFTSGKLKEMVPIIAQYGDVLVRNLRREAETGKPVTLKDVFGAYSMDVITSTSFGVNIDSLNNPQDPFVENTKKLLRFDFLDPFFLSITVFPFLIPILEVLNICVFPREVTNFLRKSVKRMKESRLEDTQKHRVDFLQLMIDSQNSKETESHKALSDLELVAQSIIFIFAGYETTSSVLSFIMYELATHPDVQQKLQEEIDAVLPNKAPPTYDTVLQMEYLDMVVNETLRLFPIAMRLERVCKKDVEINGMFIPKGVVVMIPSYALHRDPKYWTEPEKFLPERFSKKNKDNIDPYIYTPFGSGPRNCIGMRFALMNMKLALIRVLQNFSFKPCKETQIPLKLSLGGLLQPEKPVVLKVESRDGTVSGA

SMILES | IC50 (sodium channel; activity level class) [nM] | inhibition at 10 µM (CYP3A4) [%] | melting point | IC50 (sodium channel) [nM]
O=C1N(Cc2ccccn2)c2ccc(Br)cc2C12COc1cc3c(cc12)OCCO3 (stereo not drawn) [Example 2.49, 5′-bromo-1′-(pyridin-2-ylmethyl)-2,3-dihydrospiro[furo[2,3-g][1,4]-benzodioxine-8,3′-indol]-2′(1′H)-one] | 1 to 100 | > 50 | > 250 °C | –
COc1ccc(CN2C(=O)C3(COc4cc(O)c(C#N)cc43)c3ccccc32)cc1 (stereo not drawn) [Example 2.39, 6-hydroxy-1′-(4-methoxybenzyl)-2′-oxo-1′,2′-dihydrospiro[1-benzofuran-3,3′-indole]-5-carbonitrile] | 1000 to 10000 | > 50 | 112 to 114 °C | –
CC(C)c1nc(CN2C(=O)C3(COc4cc5c(cc43)OCO5)c3cccc(C#N)c32)cs1 (stereo not drawn) [Example 4.88, 1′-[(2-isopropyl-1,3-thiazol-4-yl)methyl]-2′-oxo-1′,2′-dihydrospiro[furo[2,3-f][1,3]benzodioxole-7,3′-indole]-7′-carbonitrile] | 1 to 100 | > 50 | 162 to 163 °C | –
O=C1Nc2c(Br)cccc2C12COc1cc3c(cc12)OCO3 (stereo not drawn) [Example 1.5, 7′-bromospiro[furo[2,3-f][1,3]benzodioxole-7,3′-indol]-2′(1′H)-one] | 1 to 100 | > 50 | 240 °C (dec.) | –
N#Cc1ccccc1-c1ccc(CN2C(=O)C3(COc4cc5c(cc43)CCO5)c3ccccc32)cc1 (stereo not drawn) [Example 4.24, 4′-[(2′-oxo-5,6-dihydrospiro[benzo[1,2-b:5,4-b′]difuran-3,3′-indol]-1′(2′H)-yl)methyl]biphenyl-2-carbonitrile] | 100 to 1000 | < 50 | 192 to 194 °C | –
O=C1N(Cc2ccc(N/C=N\O)nc2)c2ccccc2C12COc1cc3c(cc12)OCCO3 (stereo not drawn) [Example 38, N′-hydroxy-N-{5-[(2′-oxo-2,3-dihydrospiro[furo[2,3-g][1,4]benzodioxine-8,3′-indol]-1′(2′H)-yl)methyl]pyridin-2-yl}imidoformamide] | – | < 50 | 231 to 232 °C | 1 to 100
O=C1N(Cc2ccc3nsnc3c2)c2ccccc2C12COc1cc3c(cc12)OCCO3 (stereo not drawn) [Example 4.118, 1′-(2,1,3-benzothiadiazol-5-ylmethyl)-2,3-dihydrospiro[furo[2,3-g][1,4]benzodioxine-8,3′-indol]-2′(1′H)-one] | 1 to 100 | > 50 | 189 to 191 °C | –
Cn1c(=O)oc2cc3c(cc21)OCC31C(=O)Nc2ccccc21 (stereo not drawn) [Example 3.13, 3-methylspiro[furo[2,3-f][1,3]benzoxazole-7,3′-indole]-2,2′(1′H,3H)-dione] | 1000 to 10000 | < 50 | > 250 °C | –
O=C1Nc2cc(F)ccc2C12COc1cc3c(cc12)CCO3 (stereo not drawn) [Example 3.5, 6′-fluoro-5,6-dihydrospiro[benzo[1,2-b:5,4-b′]difuran-3,3′-indol]-2′(1′H)-one] | 1000 to 10000 | > 50 | 249 to 251 °C | –
O=C1N(Cc2ccc(C(F)(F)F)o2)c2cccc(Cl)c2C12COc1cc3c(cc12)CCO3 (stereo not drawn) [Example 4.33, 4′-chloro-1′-{[5-(trifluoromethyl)furan-2-yl]methyl}-5,6-dihydrospiro[benzo[1,2-b:5,4-b′]difuran-3,3′-indol]-2′(1′H)-one] | 1 to 100 | > 50 | 166 to 169 °C | –
CN1C(=O)COc2cc3c(cc21)OCC31C(=O)Nc2ccccc21 (stereo not drawn) [Example 3.23, 4-methyl-4,7-dihydrospiro[benzofuro[5,6-b][1,4]oxazine-8,3′-indoline]-2′,3(2H)-dione] | 1000 to 10000 | < 50 | > 250 °C | –

The next lines start with the values.

IC50 (sodium channel; activity level class) [nM] | inhibition at 10 µM (CYP3A4) [%] | melting point | IC50 (sodium channel) [nM] | SMILES
– | > 50 | 196 to 199 °C | 1 to 100 | CC(C)c1nc(CN2C(=O)C3(COc4cc5c(cc43)OCO5)c3ccccc32)no1 (stereo not drawn) [Example 11.26, 1′-{[5-(1-methylethyl)-1,2,4-oxadiazol-3-yl]methyl}spiro[furo[2,3-f][1,3]benzodioxole-7,3′-indol]-2′(1′H)-one]
– | > 50 | > 245 °C | 1000 to 10000 | CN(C)c1ccc(-c2cccc3c2C2(COc4cc5c(cc42)OCO5)C(=O)N3)cn1 (stereo not drawn) [Example 16.14, 4′-[6-(dimethylamino)pyridin-3-yl]spiro[furo[2,3-f][1,3]benzodioxole-7,3′-indol]-2′(1′H)-one]
– | < 50 | 167 to 169 °C | 1 to 100 | COC(=O)c1ccc(CN2C(=O)C3(COc4cc5c(cc43)OCCO5)c3ccccc32)cc1 (stereo not drawn) [Example 9.59, methyl 4-[(2′-oxo-2,3-dihydrospiro[furo[2,3-g][1,4]benzodioxine-8,3′-indol]-1′(2′H)-yl)methyl]benzoate]
– | > 50 | 243 to 244 °C | 1 to 100 | O=C1N(Cc2ccc(O)cc2)c2ccccc2C12COc1cc3c(cc12)OCCO3 (stereo not drawn) [Example 17.1, 1′-(4-hydroxybenzyl)-2,3-dihydrospiro[furo[2,3-g][1,4]benzodioxine-8,3′-indol]-2′(1′H)-one]
– | > 50 | 187 to 188 °C | 100 to 1000 | CN(C)c1ccc(-c2cccc3c2C2(COc4cc5c(cc42)OCCO5)C(=O)N3Cc2ccccn2)cn1 (stereo not drawn) [Example 16.59, 4′-(6-(dimethylamino)pyridin-3-yl)-1′-(pyridin-2-ylmethyl)-3,7-dihydro-2H-spiro[benzofuro[5,6-b][1,4]dioxine-8,3′-indolin]-2′-one]
100 to 1000 | > 50 | 221 to 222 °C | – | Cc1noc2cc3c(cc12)C1(CO3)C(=O)N(Cc2ncccc2C(F)(F)F)c2ccccc21 (stereo not drawn) [Example 9.42, 3-methyl-1′-{[3-(trifluoromethyl)pyridin-2-yl]methyl}spiro[furo[3,2-f][1,2]benzisoxazole-5,3′-indol]-2′(1′H)-one]
1 to 100 | > 50 | 88 to 92 °C | – | COC(=O)c1ccc(CN2C(=O)C3(COc4cc5c(cc43)OCCO5)c3ccccc32)o1 (stereo not drawn) [Example 7.2, methyl 5-[(2′-oxo-2,3-dihydrospiro[furo[2,3-g][1,4]benzodioxine-8,3′-indol]-1′(2′H)-yl)methyl]furan-2-carboxylate]
100 to 1000 | < 50 | 206 to 207 °C | – | O=C1N(Cc2ncccc2C(F)(F)F)c2ccccc2C12COc1c2ccc2c1OCCO2 (stereo not drawn) [Example 5.37, 1′-{[3-(trifluoromethyl)pyridin-2-yl]methyl}-2,3-dihyrospiro[furo[2,3-f][1,4]benzodioxine-7,3′-indol]-2′(1′H)-one]
– | > 50 | 148 to 150 °C | 100 to 1000 | O=C(NCc1ccccc1Cl)c1ccccc1CN1C(=O)C2(COc3cc4c(cc32)CCO4)c2ccccc21 (stereo not drawn) [Example 12.16, N-(2-chlorobenzyl)-2-[(2′-oxo-5,6-dihydrospiro[benzo[1,2-b:5,4-b′]difuran-3,3′-indol]-1′(2′H)-yl)methyl]benzamide]
– | > 50 | 169 to 180 °C | 100 to 1000 | Cc1nnc(-c2ccc(CN3C(=O)C4(COc5cc6c(cc54)CCO6)c4ccccc43)cc2)[nH]1 (stereo not drawn) [Example 11.29, 1′-[4(5-methyl-4H-1,2,4-triazol-3-yl)benzyl]-5,6-dihydrospiro[benzo[1,2-b:5,4-b′]difuran-3,3′-indol]-2′(1′H)-one]
– | > 50 | 207 to 209 °C | 100 to 1000 | CCCNC(=O)CN1C(=O)C2(COc3cc4c(cc32)CCO4)c2ccccc21 (stereo not drawn) [Example 12.51, 2-(2′-oxo-5,6-dihydrospiro[benzo[1,2-b:5,4-b′]difuran-3,3′-indol]-1′(2′H)-yl)-N-propylacetamide]
1000 to 10000 | < 50 | 133 to 136 °C | – | O=C1CC[C@@H](CN2C(=O)C3(COc4cc5c(cc43)CCO5)c3ccccc32)N1 (stereo partly drawn) [Example 9.2, 1′-{[(2S)-5-oxopyrrolidin-2-yl]methyl}-5,6-dihydrospiro[benzo[1,2-b:5,4-b′]difuran-3,3′-indol]-2′(1′H)-one]
– | > 50 | 236 to 238 °C | 1 to 100 | NC(=O)c1ccc(CN2C(=O)C3(COc4cc5c(cc43)OCCO5)c3ccccc32)cc1 (stereo not drawn) [Example 12.60, 4-[(2′-oxo-2,3-dihydrospiro[furo[2,3-g][1,4]benzodioxine-8,3′-indol]-1′(2′H)-yl)methyl]benzamide]
– | > 50 | 172 to 174 °C | 1000 to 10000 | COc1ccccc1NC(=O)c1ccccc1CN1C(=O)C2(COc3cc4c(cc32)CCO4)c2ccccc21 (stereo not drawn) [Example 12.11, N-(2-methoxyphenyl)-2-[(2′-oxo-5,6-dihydrospiro[benzo[1,2-b:5,4-b′]difuran-3,3′-indol]-1′(2′H)-yl)methyl]benzamide]
100 to 1000 | < 50 | 217 to 219 °C | – | O=C1N(Cc2ccc(-c3ccccn3)cc2)c2ccccc2C12COc1cc3c(cc12)CCO3 (stereo not drawn) [Example 9.4, 1-(4-pyridin-2-ylbenzyl)-5,6-dihydrospiro[benzo[1,2-b:5,4-b′]difuran-3,3′-indol]-2′(1′H)-one]
– | > 50 | 205 to 207 °C | 100 to 1000 | N#Cc1cccc2c1NC(=O)C21COc2cc3c(cc21)OCO3 (stereo not drawn) [Example 11.75, 2′-oxo-1′,2′-dihydrospiro[furo[2,3-f][1,3]benzodioxole-7,3′-indole]-7′-carbonitrile]
